The target in the experiment is T1, canine TRPM8 (Canis lupus familiaris, UniProt Q1A7N1).
T1 construct: expressed in transfected cells
The experiment is described as follows: In vitro canine TRPM8 functional assay (Ca2+-sensitive fluorescent dye, FLIPR or FDSS, icilin challenge). In kind it is cell-based. The settings on record: HEK293 cells stably expressing canine TRPM8; for inhibition at 0.2 µM: 0.2 μM compound, icilin challenge; for IC50: icilin at approx. 80% maximal response, eight-point dose-response, single determinations unless otherwise noted, read-out: IC50. On the procedure: The functional activity of compounds of the formula (I) was determined by measuring changes in intracellular calcium concentration using a Ca^2+-sensitive fluorescent dye. The changes in fluorescent signal were monitored by a fluorescence plate reader, either a FLIPR™ (Molecular Devices) or FDSS (Hamamatsu).
At 24 hrs prior to assay, HEK293 cells stably expressing canine TRPM8 were seeded in culture medium in black wall, clear-base poly-D-lysine coated 384-well plates (BD Biosciences, NJ, USA) and grown overnight in 5% CO2 at 37° C. On assay day, growth media was removed and cells were loaded with Calcium 3 Dye (Molecular Devices) for 35 min at 37° C., under 5% CO2 and then for 25 min at room temperature and atmosphere. Subsequently, cells were tested for agonist-induced increases in intracellular Ca^2+ levels using FLIPR™ or FDSS. Cells were challenged with a compound of the Formula (I) (at varying concentrations) and intracellular Ca^2+ was measured for 5 min prior to the addition of icilin to all wells to achieve a final concentration that produces approximately an 80% maximal response. EC50 or IC50 values for compounds of the present invention were determined from eight-point dose-response studies. Curves were generated using the average of quadruplicate wells for each data point.

T1 sequence (Q1A7N1 1-1104): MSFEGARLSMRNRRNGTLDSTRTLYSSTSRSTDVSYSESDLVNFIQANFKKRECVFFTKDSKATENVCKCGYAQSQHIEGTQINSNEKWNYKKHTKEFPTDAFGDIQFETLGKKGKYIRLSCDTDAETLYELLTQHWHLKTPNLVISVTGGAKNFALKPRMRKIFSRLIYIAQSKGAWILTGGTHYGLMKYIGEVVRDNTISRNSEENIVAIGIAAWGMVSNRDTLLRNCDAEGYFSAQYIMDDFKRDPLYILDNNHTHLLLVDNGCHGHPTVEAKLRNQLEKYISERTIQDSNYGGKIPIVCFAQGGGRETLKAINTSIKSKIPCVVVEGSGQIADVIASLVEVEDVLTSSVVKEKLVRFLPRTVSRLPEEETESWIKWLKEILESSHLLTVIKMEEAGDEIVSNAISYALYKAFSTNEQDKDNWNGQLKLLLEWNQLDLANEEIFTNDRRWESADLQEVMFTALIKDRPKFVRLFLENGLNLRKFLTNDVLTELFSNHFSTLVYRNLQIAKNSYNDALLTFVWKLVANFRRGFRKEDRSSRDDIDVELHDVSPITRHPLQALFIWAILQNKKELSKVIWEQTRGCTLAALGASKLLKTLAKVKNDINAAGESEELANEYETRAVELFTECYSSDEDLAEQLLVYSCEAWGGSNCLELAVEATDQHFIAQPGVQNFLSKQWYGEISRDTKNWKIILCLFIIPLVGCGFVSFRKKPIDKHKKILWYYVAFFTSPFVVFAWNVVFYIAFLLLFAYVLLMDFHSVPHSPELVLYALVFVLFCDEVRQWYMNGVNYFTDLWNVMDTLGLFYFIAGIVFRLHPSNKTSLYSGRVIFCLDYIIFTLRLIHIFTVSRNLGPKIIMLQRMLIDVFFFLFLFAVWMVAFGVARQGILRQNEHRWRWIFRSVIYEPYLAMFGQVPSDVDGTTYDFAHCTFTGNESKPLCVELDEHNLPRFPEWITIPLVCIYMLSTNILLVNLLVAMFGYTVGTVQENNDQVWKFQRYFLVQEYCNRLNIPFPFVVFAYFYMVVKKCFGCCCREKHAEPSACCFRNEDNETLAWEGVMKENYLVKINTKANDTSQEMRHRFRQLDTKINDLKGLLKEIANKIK

In the case of `CCC(=O)N(CCS(=O)(=O)N(CCC1CC1)c1sc2ccccc2c1C)CC(C)C` [Cpd 93, N-(3-Methylbenzo[b]thiophen-2-yl)-N-(2-cyclopropyl-ethyl)-2-(N-propionoyl-isobutylamino)ethylsulfonamide], the inhibition at 0.2 µM worked out at 100% and the IC50 was determined as 43 nM.
For `Cc1c(N(CCC2CC2)S(=O)(=O)CCN(C)Cc2ccccc2)sc2ccccc12` [Cpd 75, N-(3-Methylbenzo[b]thiophen-2-yl)-N-(2-cyclopropyl-ethyl)-2-(benzyl-methylamino)ethylsulfonamide], in that order: 89% and 59 nM.
As to `CCCN(C)CCS(=O)(=O)N(Cc1ccc(OC(F)(F)F)cc1)c1sc2ccccc2c1C` [Cpd 7, N-(3-Methylbenzo[b]thiophen-2-yl)-N-(4-trifluoromethoxy-benzyl)-2-(methyl-propylamino)ethylsulfonamide], the inhibition at 0.2 µM is 99% and the IC50 came to 29 nM.
For `Cc1c(N(Cc2ccc(OC(F)(F)F)cc2)S(=O)(=O)CCN2CCS(=O)(=O)CC2)sc2ccccc12` [Cpd 35, N-(3-Methylbenzo[b]thiophen-2-yl)-N-(4-trifluoromethoxy-benzyl)-2-(1,1-dioxothiomorpholin-4-yl)ethylsulfonamide], in that order: 97% and 30 nM.
In the case of `Cc1c(N(Cc2ccc(OC(F)(F)F)cc2)S(=O)(=O)CCN(C)C)sc2ccccc12` [Cpd 49, N-(3-Methylbenzo[b]thiophen-2-yl)-N-(4-trifluoromethoxy-benzyl)-2-(dimethylamino)ethylsulfonamide], the inhibition at 0.2 µM was 65%.
The same measure, in the same setting: the result for `Cc1c(N(CCCCC(F)(F)F)S(=O)(=O)CCN2CCC(C(=O)O)CC2)sc2ccccc12` [Cpd 86, N-(3-Methylbenzo[b]thiophen-2-yl)-N-(5,5,5-trifluoropent-1-yl)-2-(4-carboxypiperidin-1-yl)ethylsulfonamide] reads 34%.
With `CC(C)CN(CCS(=O)(=O)N(Cc1ccc(OC(F)(F)F)cc1)c1sc2ccccc2c1Br)CC(C)C` [Cpd 63, N-(3-Bromobenzo[b]thiophen-2-yl)-N-(4-trifluoromethoxy-benzyl)-2-(di-iso-butylamino)ethylsulfonamide], the inhibition at 0.2 µM stood at 101% and the IC50 was 6 nM.
For `CC(=O)N1CCN(CCS(=O)(=O)N(Cc2ccc(OC(F)(F)F)cc2)c2sc3ccccc3c2Br)CC1` [Cpd 65, N-(3-Bromobenzo[b]thiophen-2-yl)-N-(4-trifluoromethoxy-benzyl)-2-(4-acetyl-1-piperazinyl)ethylsulfonamide], in that order: 101% and 41 nM.
For `CCN(CCS(=O)(=O)N(Cc1ccc(OC(F)(F)F)cc1)c1sc2ccccc2c1C)CC(C)C` [Cpd 83, N-(3-Methylbenzo[b]thiophen-2-yl)-N-(4-trifluoromethoxy-benzyl)-2-(isobutyl-ethylamino)ethylsulfonamide], the inhibition at 0.2 µM was determined as 99% and the IC50 amounted to 17 nM.
Take `Cc1c(N(Cc2ccc(OC(F)(F)F)cc2)S(=O)(=O)CCN2CCOCC2)sc2ccccc12` [Cpd 32, N-(3-Methylbenzo[b]thiophen-2-yl)-N-(4-trifluoromethoxy-benzyl)-2-(morpholin-4-yl)ethylsulfonamide]: the inhibition at 0.2 µM came out at 99% and the IC50 stood at 12 nM.
Take `Cc1c(N(Cc2ccc(OC(F)(F)F)cc2)S(=O)(=O)CCN(C)CCc2ccccc2)sc2ccccc12` [Cpd 17, N-(3-Methylbenzo[b]thiophen-2-yl)-N-(4-trifluoromethoxy-benzyl)-2-(methyl-2-phenylethylamino)ethylsulfonamide]: the inhibition at 0.2 µM was 98% and the IC50 amounted to 22 nM.
In the case of `CNCCS(=O)(=O)N(Cc1ccc(OC(F)(F)F)cc1)c1sc2ccccc2c1C` [Cpd 48, N-(3-Methylbenzo[b]thiophen-2-yl)-N-(4-trifluoromethoxy-benzyl)-2-(methylamino)ethylsulfonamide], the inhibition at 0.2 µM came to 24%.
`CCOC(=O)C1CCN(CCS(=O)(=O)N(Cc2ccc(OC(F)(F)F)cc2)c2sc3ccccc3c2C)CC1` [Cpd 41, N-(3-Methylbenzo[b]thiophen-2-yl)-N-(4-trifluoromethoxy-benzyl)-2-(4-carboethoxypiperidin-1-yl)ethylsulfonamide]: the inhibition at 0.2 µM was 99% and the IC50 came out at 16 nM.
For `Cc1c(N(Cc2ccc(F)cc2)S(=O)(=O)CCN(C)Cc2ccccc2)sc2ccccc12` [Cpd 77, N-(3-Methylbenzo[b]thiophen-2-yl)-N-(4-fluoro-benzyl)-2-(benzyl-methylamino)ethylsulfonamide], the inhibition at 0.2 µM is 97% and the IC50 worked out at 49 nM.
As to `Cc1c(N(Cc2ccc(OC(F)(F)F)cc2)S(=O)(=O)CCN2CCC(C(F)(F)F)CC2)sc2ccccc12` [Cpd 44, N-(3-Methylbenzo[b]thiophen-2-yl)-N-(4-trifluoromethoxy-benzyl)-2-(4-trifluoromethylpiperidin-1-yl)ethylsulfonamide], the inhibition at 0.2 µM turned out to be 99% and the IC50 was 45 nM.
`Cc1c(N(CCC2CC2)S(=O)(=O)CCN2CCC(C(=O)O)CC2)sc2ccccc12` [Cpd 87, N-(3-Methylbenzo[b]thiophen-2-yl)-N-(2-cyclopropylethyl)-2-(4-carboxypiperidin-1-yl)ethylsulfonamide]: the inhibition at 0.2 µM is 29%.
On to `CC(=O)N(CCS(=O)(=O)N(CCCCC(F)(F)F)c1sc2ccccc2c1C)CC(C)C` [Cpd 88, N-(3-Methylbenzo[b]thiophen-2-yl)-N-(5,5,5-trifluoro-n-pent-1-yl)-2-(N-acetyl-isobutylamino)ethylsulfonamide], for which the inhibition at 0.2 µM was 91% and the IC50 is 59 nM.
For the compound `Cc1c(N(Cc2ccc(OC(F)(F)F)cc2)S(=O)(=O)CCN2CCNCC2)sc2ccccc12` [Cpd 26, N-(3-Methylbenzo[b]thiophen-2-yl)-N-(4-trifluoromethoxy-benzyl)-2-(piperazin-1-yl)ethylsulfonamide], the inhibition at 0.2 µM was 23%.
Take `O=S(=O)(CCN1CCC(F)(F)C1)N(Cc1ccc(OC(F)(F)F)cc1)c1sc2ccccc2c1Br` [Cpd 68, N-(3-Bromobenzo[b]thiophen-2-yl)-N-(4-trifluoromethoxy-benzyl)-2-(3,3-difluoropyrrolidin-1-yl)ethylsulfonamide]: the inhibition at 0.2 µM is 102% and the IC50 was 72 nM.
As for `Cc1c(N(Cc2ccc(OC(F)(F)F)cc2)S(=O)(=O)CCNCC(F)(F)F)sc2ccccc12` [Cpd 60, N-(3-Methylbenzo[b]thiophen-2-yl)-N-(4-trifluoromethoxy-benzyl)-2-(2,2,2-trifluoroethylamino)ethylsulfonamide], the inhibition at 0.2 µM was determined as 100% and the half-maximal inhibitory concentration (IC50) stood at 14 nM.
On the same counts, the results for `O=S(=O)(CCN1CCCCC1)N(Cc1ccc(OC(F)(F)F)cc1)c1cc2ccccc2s1` [Cpd 2, N-(Benzo[b]thiophen-2-yl)-N-(4-trifluoromethoxy-benzyl)-2-(piperidin-1-yl)ethylsulfonamide] are 92% and 33 nM.
As to `Cc1c(N(Cc2ccc(OC(F)(F)F)cc2)S(=O)(=O)CCN2CCCC2)sc2ccccc12` [Cpd 36, N-(3-Methylbenzo[b]thiophen-2-yl)-N-(4-trifluoromethoxy-benzyl)-2-(pyrrolidin-1-yl)ethylsulfonamide], the inhibition at 0.2 µM turned out to be 94% and the IC50 stood at 56 nM.
Turning to `CN(CCS(=O)(=O)N(Cc1ccc(OC(F)(F)F)cc1)c1sc2ccccc2c1Br)Cc1ccccc1` [Cpd 61, N-(3-Bromobenzo[b]thiophen-2-yl)-N-(4-trifluoromethoxy-benzyl)-2-(benzyl-methylamino)ethylsulfonamide], the inhibition at 0.2 µM came to 102% and the IC50 stood at 28 nM.
On the same counts, the results for `Cc1c(N(Cc2ccc(OC(F)(F)F)cc2)S(=O)(=O)CCN(C)CC(C)C)sc2ccccc12` [Cpd 11, N-(3-Methylbenzo[b]thiophen-2-yl)-N-(4-trifluoromethoxy-benzyl)-2-(methyl-isobutylamino)ethylsulfonamide] are 100% and 22 nM.
For `O=S(=O)(CCN1CCCCC1)N(Cc1ccc(OC(F)(F)F)cc1)c1sc2ccccc2c1Br` [Cpd 64, N-(3-Bromobenzo[b]thiophen-2-yl)-N-(4-trifluoromethoxy-benzyl)-2-(N-piperidinyl)ethylsulfonamide], in that order: 101% and 27 nM.
Take `CCCCN(CCCC)CCS(=O)(=O)N(Cc1ccc(OC(F)(F)F)cc1)c1sc2ccccc2c1Br` [Cpd 62, N-(3-Bromobenzo[b]thiophen-2-yl)-N-(4-trifluoromethoxy-benzyl)-2-(di-n-butylamino)ethylsulfonamide]: the inhibition at 0.2 µM stood at 96% and the IC50 was 38 nM.
For `Cc1c(N(Cc2ccc(OC(F)(F)F)cc2)S(=O)(=O)CCN2CCC(C)CC2)sc2ccccc12` [Cpd 19, N-(3-Methylbenzo[b]thiophen-2-yl)-N-(4-trifluoromethoxy-benzyl)-2-(4-methylpiperidin-1-yl)ethylsulfonamide], in that order: 99% and 34 nM.

The term inhibition denotes the drop in the measured response relative to a control, in per cent. As usually defined, the IC50 is the concentration that gives 50% inhibition.
